The values that follow come from US8519096B2, “Citrullinated peptides for diagnosing and prognosing rheumatoid arthritis” (Nestec S.A., priority 2009, dated 2013).

Non-standard residues stand in square brackets, D forms with d. *: point of attachment. Biotin = O=C1N[C@H]2[C@H](CS[C@H]2CCCCC(=O)*)N1; Cit = NC(=O)NCCC[C@H](N)C(=O)O

For this experiment, the system named is IgG ACPAs. The experiment in a line: ACPA ELISA with anti-human IgG secondary antibody. It is filed as binding. The settings on record: Example 7, FIGS. 20-27. The protocol:
The synthetic citrullnated peptides set forth in Example 6, which were designed from synovial proteins, were synthesized and evaluated for their ability to diagnose and/or prognose RA. […] The peptides were then tested for IgG ACPA dose-response in samples of synovial fluid taken from both healthy patients and patients with RA.
(In general: In an ELISA, binding on a coated surface is turned into a signal by an enzyme label.)
On to “Apo a-4: synthetic citrullinated peptide derived from Apolipoprotein a, Table 8 (Biotin-HWHQ[Cit]TTEYYPNGGLT[Cit]GGLTRNYS[Cit]N-NH2; SMILES CC(C)C[C@H](NC(=O)CNC(=O)CNC(=O)[C@H](CC(N)=O)NC(=O)[C@@H]1CCCN1C(=O)[C@H](Cc1ccc(O)cc1)NC(=O)[C@H](Cc1ccc(O)cc1)NC(=O)[C@H](CCC(=O)O)NC(=O)[C@@H](NC(=O)[C@@H](NC(=O)[C@H](CCCNC(N)=O)NC(=O)[C@H](CCC(N)=O)NC(=O)[C@H](Cc1c[nH]cn1)NC(=O)[C@H](Cc1c[nH]c2ccccc12)NC(=O)[C@H](Cc1c[nH]cn1)NC(=O)CCCC[C@@H]1SC[C@@H]2NC(=O)N[C@@H]21)[C@@H](C)O)[C@@H](C)O)C(=O)N[C@H](C(=O)N[C@@H](CCCNC(N)=O)C(=O)NCC(=O)NCC(=O)N[C@@H](CC(C)C)C(=O)N[C@H](C(=O)N[C@@H](CCCNC(=N)N)C(=O)N[C@@H](CC(N)=O)C(=O)N[C@@H](Cc1ccc(O)cc1)C(=O)N[C@@H](CO)C(=O)N[C@@H](CCCNC(N)=O)C(=O)N[C@@H](CC(N)=O)C(N)=O)[C@@H](C)O)[C@@H](C)O)”, for which the “IgG ACPA positive response (strong/moderate)” value is given as “strong”. Turning to “Bip-2: synthetic citrullinated peptide derived from BiP, Table 8 (Biotin-DVRKDN[Cit]AVQKLR[Cit]EVEKAK[Cit]ALSSQHQ-NH2; SMILES CC(C)C[C@H](NC(=O)[C@H](C)NC(=O)[C@H](CCCNC(N)=O)NC(=O)[C@H](CCCCN)NC(=O)[C@H](C)NC(=O)[C@H](CCCCN)NC(=O)[C@H](CCC(=O)O)NC(=O)[C@@H](NC(=O)[C@H](CCC(=O)O)NC(=O)[C@H](CCCNC(N)=O)NC(=O)[C@H](CCCNC(=N)N)NC(=O)[C@H](CC(C)C)NC(=O)[C@H](CCCCN)NC(=O)[C@H](CCC(N)=O)NC(=O)[C@@H](NC(=O)[C@H](C)NC(=O)[C@H](CCCNC(N)=O)NC(=O)[C@H](CC(N)=O)NC(=O)[C@H](CC(=O)O)NC(=O)[C@H](CCCCN)NC(=O)[C@H](CCCNC(=N)N)NC(=O)[C@@H](NC(=O)[C@H](CC(=O)O)NC(=O)CCCC[C@@H]1SC[C@@H]2NC(=O)N[C@@H]21)C(C)C)C(C)C)C(C)C)C(=O)N[C@@H](CO)C(=O)N[C@@H](CO)C(=O)N[C@@H](CCC(N)=O)C(=O)N[C@@H](Cc1c[nH]cn1)C(=O)N[C@@H](CCC(N)=O)C(N)=O)”, the “IgG ACPA positive response (strong/moderate)” value is on record as “moderate”. The result for “FBNT-6: synthetic citrullinated peptide derived from fibronectin, Table 8 (Biotin-RIAP[Cit]ATITGPRATITGY[Cit]YRI[Cit]HHPEHG-NH2; SMILES CC[C@H](C)[C@H](NC(=O)[C@H](CCCNC(=N)N)NC(=O)CCCC[C@@H]1SC[C@@H]2NC(=O)N[C@@H]21)C(=O)N[C@@H](C)C(=O)N1CCC[C@H]1C(=O)N[C@@H](CCCNC(N)=O)C(=O)N[C@@H](C)C(=O)N[C@H](C(=O)N[C@H](C(=O)N[C@H](C(=O)NCC(=O)N1CCC[C@H]1C(=O)N[C@@H](CCCNC(=N)N)C(=O)N[C@@H](C)C(=O)N[C@H](C(=O)N[C@H](C(=O)N[C@H](C(=O)NCC(=O)N[C@@H](Cc1ccc(O)cc1)C(=O)N[C@@H](CCCNC(N)=O)C(=O)N[C@@H](Cc1ccc(O)cc1)C(=O)N[C@@H](CCCNC(=N)N)C(=O)N[C@H](C(=O)N[C@@H](CCCNC(N)=O)C(=O)N[C@@H](Cc1c[nH]cn1)C(=O)N[C@@H](Cc1c[nH]cn1)C(=O)N1CCC[C@H]1C(=O)N[C@@H](CCC(=O)O)C(=O)N[C@@H](Cc1c[nH]cn1)C(=O)NCC(N)=O)[C@@H](C)CC)[C@@H](C)O)[C@@H](C)CC)[C@@H](C)O)[C@@H](C)O)[C@@H](C)CC)[C@@H](C)O)” reads “strong”; that for “H2B-2: synthetic citrullinated peptide derived from histone (H2B), Table 8 (Biotin-SFVNDIFE[Cit]IAGEAS[Cit]LAHYNKRSTITS[Cit]EG-NH2; SMILES CC[C@H](C)[C@H](NC(=O)[C@H](CCCNC(N)=O)NC(=O)[C@H](CCC(=O)O)NC(=O)[C@H](Cc1ccccc1)NC(=O)[C@@H](NC(=O)[C@H](CC(=O)O)NC(=O)[C@H](CC(N)=O)NC(=O)[C@@H](NC(=O)[C@H](Cc1ccccc1)NC(=O)[C@H](CO)NC(=O)CCCC[C@@H]1SC[C@@H]2NC(=O)N[C@@H]21)C(C)C)[C@@H](C)CC)C(=O)N[C@@H](C)C(=O)NCC(=O)N[C@@H](CCC(=O)O)C(=O)N[C@@H](C)C(=O)N[C@@H](CO)C(=O)N[C@@H](CCCNC(N)=O)C(=O)N[C@@H](CC(C)C)C(=O)N[C@@H](C)C(=O)N[C@@H](Cc1c[nH]cn1)C(=O)N[C@@H](Cc1ccc(O)cc1)C(=O)N[C@@H](CC(N)=O)C(=O)N[C@@H](CCCCN)C(=O)N[C@@H](CCCNC(=N)N)C(=O)N[C@@H](CO)C(=O)N[C@H](C(=O)N[C@H](C(=O)N[C@H](C(=O)N[C@@H](CO)C(=O)N[C@@H](CCCNC(N)=O)C(=O)N[C@@H](CCC(=O)O)C(=O)NCC(N)=O)[C@@H](C)O)[C@@H](C)CC)[C@@H](C)O)”, “moderate”; that for “FBNT-10: synthetic citrullinated peptide derived from fibronectin, Table 8 (Biotin-GGFR[Cit]TTPPTTF[Cit]RTTPPTTAR-NH2; SMILES C[C@H](NC(=O)[C@@H](NC(=O)[C@@H](NC(=O)[C@@H]1CCCN1C(=O)[C@@H]1CCCN1C(=O)[C@@H](NC(=O)[C@@H](NC(=O)[C@H](CCCNC(=N)N)NC(=O)[C@H](CCCNC(N)=O)NC(=O)[C@H](Cc1ccccc1)NC(=O)[C@@H](NC(=O)[C@@H](NC(=O)[C@@H]1CCCN1C(=O)[C@@H]1CCCN1C(=O)[C@@H](NC(=O)[C@@H](NC(=O)[C@H](CCCNC(N)=O)NC(=O)[C@H](CCCNC(=N)N)NC(=O)[C@H](Cc1ccccc1)NC(=O)CNC(=O)CNC(=O)CCCC[C@@H]1SC[C@@H]2NC(=O)N[C@@H]21)[C@@H](C)O)[C@@H](C)O)[C@@H](C)O)[C@@H](C)O)[C@@H](C)O)[C@@H](C)O)[C@@H](C)O)[C@@H](C)O)C(=O)N[C@@H](CCCNC(=N)N)C(N)=O)”, “moderate”. For “T2α1-3: synthetic citrullinated peptide derived from collagen (Coll.T2α1), Table 8 (Biotin-KWGKTVIEY[Cit]SQKTSRLYRSQKTS[Cit]LG-NH2; SMILES CC[C@H](C)[C@H](NC(=O)[C@@H](NC(=O)[C@@H](NC(=O)[C@H](CCCCN)NC(=O)CNC(=O)[C@H](Cc1c[nH]c2ccccc12)NC(=O)[C@H](CCCCN)NC(=O)CCCC[C@@H]1SC[C@@H]2NC(=O)N[C@@H]21)[C@@H](C)O)C(C)C)C(=O)N[C@@H](CCC(=O)O)C(=O)N[C@@H](Cc1ccc(O)cc1)C(=O)N[C@@H](CCCNC(N)=O)C(=O)N[C@@H](CO)C(=O)N[C@@H](CCC(N)=O)C(=O)N[C@@H](CCCCN)C(=O)N[C@H](C(=O)N[C@@H](CO)C(=O)N[C@@H](CCCNC(=N)N)C(=O)N[C@@H](CC(C)C)C(=O)N[C@@H](Cc1ccc(O)cc1)C(=O)N[C@@H](CCCNC(=N)N)C(=O)N[C@@H](CO)C(=O)N[C@@H](CCC(N)=O)C(=O)N[C@@H](CCCCN)C(=O)N[C@H](C(=O)N[C@@H](CO)C(=O)N[C@@H](CCCNC(N)=O)C(=O)N[C@@H](CC(C)C)C(=O)NCC(N)=O)[C@@H](C)O)[C@@H](C)O)”, the “IgG ACPA positive response (strong/moderate)” value was “moderate”.

Regarding “FIB-A6: 25-mer citrullinated peptide: fibrinogen alpha chain amino acids 451-465 linked to 509-517, Cys461 to Ser (Biotin-GSGSTTTTR[Cit]SSSKTVFRH[Cit]HPDEA-NH2; SMILES CC(C)[C@H](NC(=O)[C@@H](NC(=O)[C@H](CCCCN)NC(=O)[C@H](CO)NC(=O)[C@H](CO)NC(=O)[C@H](CO)NC(=O)[C@H](CCCNC(N)=O)NC(=O)[C@H](CCCNC(=N)N)NC(=O)[C@@H](NC(=O)[C@@H](NC(=O)[C@@H](NC(=O)[C@@H](NC(=O)[C@H](CO)NC(=O)CNC(=O)[C@H](CO)NC(=O)CNC(=O)CCCC[C@@H]1SC[C@@H]2NC(=O)N[C@@H]21)[C@@H](C)O)[C@@H](C)O)[C@@H](C)O)[C@@H](C)O)[C@@H](C)O)C(=O)N[C@@H](Cc1ccccc1)C(=O)N[C@@H](CCCNC(=N)N)C(=O)N[C@@H](Cc1c[nH]cn1)C(=O)N[C@@H](CCCNC(N)=O)C(=O)N[C@@H](Cc1c[nH]cn1)C(=O)N1CCC[C@H]1C(=O)N[C@@H](CC(=O)O)C(=O)N[C@@H](CCC(=O)O)C(=O)N[C@@H](C)C(N)=O)”, the “IgG ACPA positive response (strong/moderate)” value is “moderate”. With “H3-2: synthetic citrullinated peptide derived from histone (H3), Table 8 (Biotin-DFKTDL[Cit]FQSSAVMARRIRGE[Cit]AG-NH2; SMILES CC[C@H](C)[C@H](NC(=O)[C@H](CCCNC(=N)N)NC(=O)[C@H](CCCNC(=N)N)NC(=O)[C@H](C)NC(=O)[C@H](CCSC)NC(=O)[C@@H](NC(=O)[C@H](C)NC(=O)[C@H](CO)NC(=O)[C@H](CO)NC(=O)[C@H](CCC(N)=O)NC(=O)[C@H](Cc1ccccc1)NC(=O)[C@H](CCCNC(N)=O)NC(=O)[C@H](CC(C)C)NC(=O)[C@H](CC(=O)O)NC(=O)[C@@H](NC(=O)[C@H](CCCCN)NC(=O)[C@H](Cc1ccccc1)NC(=O)[C@H](CC(=O)O)NC(=O)CCCC[C@@H]1SC[C@@H]2NC(=O)N[C@@H]21)[C@@H](C)O)C(C)C)C(=O)N[C@@H](CCCNC(=N)N)C(=O)NCC(=O)N[C@@H](CCC(=O)O)C(=O)N[C@@H](CCCNC(N)=O)C(=O)N[C@@H](C)C(=O)NCC(N)=O)” the entry was “moderate”; with “H2B-3: synthetic citrullinated peptide derived from histone (H2B), Table 8 (Biotin-SRLAHYNK[Cit]STITSREIQTAV[Cit]LG-NH2; SMILES CC[C@H](C)[C@H](NC(=O)[C@H](CCC(=O)O)NC(=O)[C@H](CCCNC(=N)N)NC(=O)[C@H](CO)NC(=O)[C@@H](NC(=O)[C@@H](NC(=O)[C@@H](NC(=O)[C@H](CO)NC(=O)[C@H](CCCNC(N)=O)NC(=O)[C@H](CCCCN)NC(=O)[C@H](CC(N)=O)NC(=O)[C@H](Cc1ccc(O)cc1)NC(=O)[C@H](Cc1c[nH]cn1)NC(=O)[C@H](C)NC(=O)[C@H](CC(C)C)NC(=O)[C@H](CCCNC(=N)N)NC(=O)[C@H](CO)NC(=O)CCCC[C@@H]1SC[C@@H]2NC(=O)N[C@@H]21)[C@@H](C)O)[C@@H](C)CC)[C@@H](C)O)C(=O)N[C@@H](CCC(N)=O)C(=O)N[C@H](C(=O)N[C@@H](C)C(=O)N[C@H](C(=O)N[C@@H](CCCNC(N)=O)C(=O)N[C@@H](CC(C)C)C(=O)NCC(N)=O)C(C)C)[C@@H](C)O)”, “strong”.
